Our source for the pest or weed control and melting point values is patent publication US20220030867A1 (priority 2018, published 2022).

Series [1] relates to Magnaporthe grisea (Pyricularia oryzae). Briefly: whole plant or invertebrate. The format is in vivo, Magnaporthe grisea on rice leaf segments cv. Ballila. Conditions: foliar, read-out: control of Magnaporthe grisea.
The test system of the next series is Fusarium culmorum. The experiment in a line: whole plant or invertebrate. Conditions: in Triticum aestivum, read-out: control of Fusarium culmorum. The series is classed as in vivo, Fusarium culmorum on wheat spikelets cv. Monsun.

On to `Cc1nc2c(F)cccc2cc1NC(=O)C(C)(Cc1cccc(F)c1)CC(F)(F)F` (stereo not shown) [Compound E-8, 4,4,4-trifluoro-N-(8-fluoro-2-methyl-3-quinolyl)-2-[(3-fluorophenyl)methyl]-2-methyl-butanamide], for which the pest or weed control at 200 ppm (in series [1]; in the series on Fusarium culmorum) was not below 80% in each case.
`Cc1nc2c(Cl)cccc2cc1NC(=O)C(C)(Cc1ccccc1)CC(C)C` (stereo not shown) [Compound E-13, 2-benzyl-N-(8-chloro-2-methyl-3-quinolyl)-2,4-dimethyl-pentanamide]: the melting point fell in the range of 99 to 100 °C. The pest or weed control at 200 ppm in series [1] is not below 80%.
For `Cc1nc2c(Cl)cccc2cc1NC(=O)C(C)(Cc1ccccc1)CC(F)(F)F` (stereo not shown) [Compound E-17, 2-benzyl-N-(8-chloro-2-methyl-3-quinolyl)-4,4,4-trifluoro-2-methyl-butanamide], in that order: 47 to 50 °C and not below 80%.
Turning to `CC(Cc1ccc(F)cc1)(CC(F)(F)F)C(=O)Nc1cnc2c(F)cccc2c1` (stereo not shown) [Compound E-18, 4,4,4-trifluoro-2-[(4-fluorophenyl)methyl]-N-(8-fluoro-3-quinolyl)-2-methyl-butanamide], the pest or weed control at 200 ppm in series [1] is not below 80%.
As to `Cc1c(NC(=O)C(Cc2ccccc2)CC(C)C)cnc2c(F)cccc12` (stereo not shown) [Compound E-19, 2-benzyl-N-(8-fluoro-4-methyl-3-quinolyl)-4-methyl-pentanamide], the pest or weed control at 200 ppm (in series [1]; in the series on Fusarium culmorum) was not below 80% in each case.
As to `C=C(Cl)CC(C)(Cc1ccccc1)C(=O)Nc1cnc2c(F)cccc2c1C` (stereo not shown) [Compound E-20, 2-benzyl-4-chloro-N-(8-fluoro-4-methyl-3-quinolyl)-2-methyl-pent-4-enamide], the melting point was 124 to 126 °C. The pest or weed control at 200 ppm in series [1] is not below 80%. The pest or weed control at 200 ppm in the series with Fusarium culmorum is not below 80%.
`C=C(Cl)CC(C)(Cc1ccccc1)C(=O)Nc1cc2cccc(F)c2nc1C` (stereo not shown) [Compound E-21, 2-benzyl-4-chloro-N-(8-fluoro-2-methyl-3-quinolyl)-2-methyl-pent-4-enamide]: the melting point lay within 121 to 123 °C. In addition, in series [1], the pest or weed control at 200 ppm is not below 80%. Further, in the series with Fusarium culmorum, the pest or weed control at 200 ppm was not below 80%.
In turn, `C#CCC(C)(Cc1ccccc1)C(=O)Nc1cnc2c(F)cccc2c1` (stereo not shown) [Compound E-26, 2-benzyl-N-(8-fluoro-3-quinolyl)-2-methyl-pent-4-ynamide] yielded a melting point of 189 to 191 °C. Further, the pest or weed control at 200 ppm in series [1] is not below 80%.
The like results for `CCCCC(C)(Cc1ccccc1)C(=O)Nc1cnc2c(F)cccc2c1` (stereo not shown) [Compound E-27, 2-benzyl-N-(8-fluoro-3-quinolyl)-2-methyl-hexanamide] were, in that order, 135 to 137 °C and not below 80%.
With `CC#CCC(Cc1ccccc1)C(=O)Nc1cnc2c(F)cccc2c1` (stereo not shown) [Compound E-29, 2-benzyl-N-(8-fluoro-3-quinolyl)hex-4-ynamide], the melting point was in the range of 218 to 220 °C. Moreover, in series [1], the pest or weed control at 200 ppm was not below 80%.
Take `CC#CCC(C)(Cc1ccccc1)C(=O)Nc1cnc2c(F)cccc2c1` (stereo not shown) [Compound E-30, 2-benzyl-N-(8-fluoro-3-quinolyl)-2-methyl-hex-4-ynamide]: the melting point lay within 136 to 138 °C. Besides, the pest or weed control at 200 ppm in series [1] is not below 80%.
As to `Cc1nc2c(F)cccc2cc1NC(=O)C(Cc1ccccc1)CC(F)(F)F` (stereo not shown) [Compound E-44, 2-benzyl-4,4,4-trifluoro-N-(8-fluoro-2-methyl-3-quinolyl)-butanamide], the pest or weed control at 200 ppm (in series [1]; in the series with Fusarium culmorum) was not below 80% in each case.
The compound `Cc1c(NC(=O)C(Cc2ccccc2)CC(F)(F)F)cnc2c(F)cccc12` (stereo not shown) [Compound E-45, 2-benzyl-4,4,4-trifluoro-N-(8-fluoro-4-methyl-3-quinolyl)-butanamide] had a melting point of 165 to 167 °C. The pest or weed control at 200 ppm in series [1] is not below 80%. For the same compound, the pest or weed control at 200 ppm with Fusarium culmorum was not below 80%.
As for `C=C(C)CC(CC)(Cc1ccccc1)C(=O)Nc1cnc2c(F)cccc2c1` (stereo not shown) [Compound E-46, 2-benzyl-2-ethyl-N-(8-fluoro-3-quinolyl)-4-methyl-pent-4-enamide], the pest or weed control at 200 ppm in series [1] is not below 80%.
Take `C=C(Cl)CC(C)(Cc1ccccc1)C(=O)Nc1cnc2c(F)cccc2c1` (stereo not shown) [Compound E-53, 2-benzyl-4-chloro-N-(8-fluoro-3-quinolyl)-2-methyl-pent-4-enamide]: the melting point was 148 to 150 °C. The pest or weed control at 200 ppm with Fusarium culmorum is not below 80%.
The like results for `O=C(Nc1cnc2c(F)cccc2c1)C(Cc1ccccc1)CC(F)(F)Cl` (stereo not shown) [Compound E-58, 2-benzyl-4-chloro-4,4-difluoro-N-(8-fluoro-3-quinolyl)butanamide] were, in that order, 65 to 70 °C and not below 80%.
For `Cc1cccc2cc(NC(=O)C(C)(Cc3ccccc3)CC(F)(F)F)cnc12` (stereo not shown) [Compound E-59, 2-benzyl-4,4,4-trifluoro-2-methyl-N-(8-methyl-3-quinolyl)-butanamide], in that order: 123 to 125 °C and not below 80%.
In turn, `CC(Cc1ccccc1)(CC(F)(F)F)C(=O)Nc1cnc2c(F)c(F)ccc2c1` (stereo not shown) [Compound E-60, 2-benzyl-N-(7,8-difluoro-3-quinolyl)-4,4,4-trifluoro-2-methyl-butanamide] registered a melting point of 183 to 186 °C. In the series with Fusarium culmorum, the pest or weed control at 200 ppm was not below 80%.
In the case of `C=C(C)CC(C)(Cc1ccccc1)C(=O)Nc1cnc2c(Br)cccc2c1` (stereo not shown) [Compound E-63, 2-benzyl-N-(8-bromo-3-quinolyl)-2,4-dimethyl-pent-4-enamide], the melting point is 165 to 169 °C. In the series with Fusarium culmorum, the pest or weed control at 200 ppm is not below 80%.
With `CC(F)(F)CC(C)(Cc1ccccc1)C(=O)Nc1cnc2c(F)cccc2c1` (stereo not shown) [Compound E-68, 2-benzyl-4,4-difluoro-N-(8-fluoro-3-quinolyl)-2-methyl-pentanamide], the melting point is 156 to 158 °C. The pest or weed control at 200 ppm in the series on Fusarium culmorum is not below 80%.
The like results for `C=C(F)CC(C)(Cc1ccccc1)C(=O)Nc1cnc2c(F)cccc2c1` (stereo not shown) [Compound E-71, 2-benzyl-4-fluoro-N-(8-fluoro-3-quinolyl)-2-methyl-pent-4-enamide] were, in that order, 132 to 134 °C and not below 80%.
`C=C(C)CC(C)(Cc1ccccc1)C(=O)Nc1cnc2c(F)cccc2c1` (stereo not shown) [Compound E-74, 2-benzyl-N-(8-fluoro-3-quinolyl)-2,4-dimethyl-pent-4-enamide] registered a melting point of 147 to 149 °C. Besides, the pest or weed control at 200 ppm with Fusarium culmorum is not below 80%.
The compound `CC(Cc1ccccc1)(CC1CC1)C(=O)Nc1cnc2c(F)cccc2c1` (stereo not shown) [Compound E-76, 2-benzyl-3-cyclopropyl-N-(8-fluoro-3-quinolyl)-2-methyl-propanamide] came in with a melting point of 157 to 159 °C. The pest or weed control at 200 ppm in series [1] is not below 80%.
Regarding `CC(Cc1ccccc1)(CC(F)(F)F)C(=O)Nc1cnc2c(F)cccc2c1` (stereo not shown) [Compound E-80, 2-benzyl-4,4,4-trifluoro-N-(8-fluoro-3-quinolyl)-2-methyl-butanamide], the pest or weed control at 200 ppm (in series [1]; in the series on Fusarium culmorum) was not below 80% throughout.
For `O=C(Nc1cnc2c(F)cccc2c1)C(Cc1ccccc1)CC(F)(F)F` (stereo not shown) [Compound E-82, 2-benzyl-4,4,4-trifluoro-N-(8-fluoro-3-quinolyl)butanamide], the melting point lay within 161 to 164 °C. In the series on Fusarium culmorum, the pest or weed control at 200 ppm was not below 80%.
In the case of `CC(C)CC(C)(Cc1ccccc1)C(=O)Nc1cnc2c(F)cccc2c1` (stereo not shown) [Compound E-87, 2-benzyl-N-(8-fluoro-3-quinolyl)-2,4-dimethyl-pentanamide], the melting point lay within 140 to 142 °C. For the same compound, in the series on Fusarium culmorum, the pest or weed control at 200 ppm is not below 80%.
The like results for `CC(C)(C)C(Cc1ccccc1)C(=O)Nc1cnc2c(F)cccc2c1` (stereo not shown) [Compound E-88, 2-benzyl-N-(8-fluoro-3-quinolyl)-3,3-dimethyl-butanamide] were, in that order, 212 to 215 °C and not below 80%.
With `C=C(C)C[C@@](C)(Cc1ccccc1)C(=O)Nc1cc2cccc(F)c2nc1C` [Compound F-1, (2S)-2-benzyl-N-(8-fluoro-2-methyl-3-quinolyl)-2,4-dimethyl-pent-4-enamide], the pest or weed control at 200 ppm (in series [1]; in the series with Fusarium culmorum) was not below 80% throughout.
Take `C=C(C)C[C@](C)(Cc1ccccc1)C(=O)Nc1cc2cccc(F)c2nc1C` [Compound F-2, (2R)-2-benzyl-N-(8-fluoro-2-methyl-3-quinolyl)-2,4-dimethyl-pent-4-enamide]: the pest or weed control at 200 ppm (in series [1]; in the series on Fusarium culmorum) was not below 80% throughout.
On to `C=C(C)C[C@](C)(Cc1ccccc1)C(=O)Nc1cnc2c(F)cccc2c1C` [Compound F-6, (2R)-2-benzyl-N-(8-fluoro-4-methyl-3-quinolyl)-2,4-dimethyl-pent-4-enamide], for which the pest or weed control at 200 ppm (in series [1]; in the series with Fusarium culmorum) was not below 80% each time.
`CC1(C[C@](C)(Cc2ccccc2)C(=O)Nc2cnc3c(F)cccc3c2)CC1` [Compound F-9, (2R)-2-benzyl-N-(8-fluoro-3-quinolyl)-2-methyl-3-(1-methylcyclopropyl)propanamide]: the pest or weed control at 200 ppm (in series [1]; in the series with Fusarium culmorum) was not below 80% each time.
As for `Cc1nc2c(F)cccc2cc1NC(=O)[C@](C)(Cc1ccccc1)CC(F)(F)F` [Compound F-11, (2R)-2-benzyl-4,4,4-trifluoro-N-(8-fluoro-2-methyl-3-quinolyl)-2-methyl-butanamide], the pest or weed control at 200 ppm (in series [1]; in the series on Fusarium culmorum) was not below 80% in each case.
For the compound `Cc1nc2c(F)cccc2cc1NC(=O)[C@@](C)(Cc1ccccc1)CC(F)(F)F` [Compound F-12, (2S)-2-benzyl-4,4,4-trifluoro-N-(8-fluoro-2-methyl-3-quinolyl)-2-methyl-butanamide], the pest or weed control at 200 ppm (in series [1]; in the series on Fusarium culmorum) was not below 80% each time.
